Experimental findings from US10227324B2 (Shanghai Haiyan Pharmaceutical Technology Co., Ltd., priority 2014, dated 2019) are described below.

Experiment [1] has as its target T1, PI3K-α kinase (p110α/p85α) (Homo sapiens, UniProt P42336).
T1 construct: purchased Invitrogen PV4788
Kind of experiment: Determination of PI3K kinase activity (ADP Transcreener, fluorescence polarization). It counts as biochemical. The following applies: for IC50: ATP 10 μM. (In general: Polarisation of emitted light reports the rotation of a fluorescent probe.)

Experiment [2] concerns the target T2, PI3K-β kinase (p110β/p85α) (Homo sapiens, UniProt P42338).
T2 construct: purchased Millipore 14-603
The description is as above. Type of experiment: biochemical. The following applies: Table 1; ATP 10 μM; read-out: PI3K-β/nM (IC50 of inhibitory activity against PI3K kinase).

Experiment [3] deals with T3, PI3K-δ kinase (p110δ/p85α) (Homo sapiens, UniProt O00329).
T3 construct: purchased Millipore 14-604M
Described as above. It counts as biochemical. The following applies: Table 1; ATP 10 μM; read-out: PI3K-δ/nM (IC50 of inhibitory activity against PI3K kinase).

Experiment [4] relates to Akt phosphorylation (Ser473-p-Akt) in PC-3 cells. Kind of experiment: Inhibition of p-Akt phosphorylation level in PC-3 cells (cell level fluorescence imaging). Type of experiment: cell-based. The following applies: Homo sapiens, read-out: PC-3 cell (IC50/nM). As for the experimental part:
This experiment was performed by cell level fluorescence image processing method.
Triton X-100: 10% aqueous Triton X-100 solution (Sigma T8787-100 mL) was prepared, stored at 4° C. and diluted by 1:100 to give 0.1% Triton X-100 aqueous solution for use in the experiment.
Prodium Iodide (PI): 1 mg/mL (1.5 mM) PI (Sigma P4170) storage solution was prepared with PBS and stored at −25° C. in the dark. For use, the PI storage solution was diluted with PBS by 1:1000 to give a 1.5 μM solution and used in dark.
PC-3 cells in logarithmic growth phase were digested with 0.25% EDTA trypsin. 3000 cells/90 μL were seeded in a 96-well plate (BD 356692) and cultured at 37° C. and 5% CO2. After the cells adhered, 10 μL of the compound to be tested which was gradiently diluted 3 times (0.0046 to 10 μM, 8 concentration points, in duplicate) was added and incubated for 2 hours, followed by addition of 100 μL of 4% paraformaldehyde (DINGGUO AR-0211) and incubated at room temperature for 45 minutes. Then 100 μL of 0.1% Triton X-100 solution was added and incubated for another 30 minutes.
Triton X-100 solution was removed and the cells were rinsed with 200 μl of PBS twice (300 rpm vibration for 1 minute). The blocking solution (1% BSA solution in PBS) (Genview FA016-100G) was added and incubated at room temperature for 2 hours. The plate was rinsed with PBS once (300 rpm, 1 min) and 30 μL of Ser473-p-Akt antibody (cell signaling 4060L) diluted with 0.1% BSA was added and incubated overnight at 4° C. Ser473-p-Akt antibody was removed and the plate was rinsed with PBS twice (300 rpm, 1 minute). 35 μL of Alexa Flour 488 donkey anti-rabbit IgG (Invitrogen A21206) was added and incubated at room temperature for 1.5 hours. The plate was rinsed with PBS twice (300 rpm, 1 minute) and 35 μL of 1.5 μM PI was added and incubated at room temperature for 0.5 h. The fluorescence intensity was measured with Acumen eX3 (TTP LabTech).
10 μM BEZ235 (Selleck S1009) treatment group was negative control and DMSO treatment group was positive control. Inhibition ratio %=[1−(the mean value of the fluorescence intensity of the compound to be tested−the mean value of the fluorescence intensity of the negative control group)/(the mean value of the fluorescence intensity of the positive control group−the mean value of the fluorescence intensity of the negative control group)]×100%

A further experiment has as its system T47D cells. Kind of experiment: Cell inhibitory activity detected by MTT assay, T47D. It counts as cell-based. The following applies: Homo sapiens, T47D, 72 h, read-out: T47D cell (IC50/nM), cell growth inhibition. A general note: Formazan colour is commonly taken as a measure of viable cells.
The mark [5] stands for this setting: Table 1, read-out: PI3K-α/nM (IC50 of inhibitory activity against PI3K kinase).
[6] abbreviates: Akt phosphorylation in PC-3 cells, 2 hours incubation.
The mark [7] stands for this setting: Table 2, read-out: PI3K-α/nM (IC50 of inhibitory activity against PI3K-α kinase).

Molecules are shown by their SMILES. Read-outs that look alike come from different tables or passages of the source.

T1 sequence (P42336 whole entry): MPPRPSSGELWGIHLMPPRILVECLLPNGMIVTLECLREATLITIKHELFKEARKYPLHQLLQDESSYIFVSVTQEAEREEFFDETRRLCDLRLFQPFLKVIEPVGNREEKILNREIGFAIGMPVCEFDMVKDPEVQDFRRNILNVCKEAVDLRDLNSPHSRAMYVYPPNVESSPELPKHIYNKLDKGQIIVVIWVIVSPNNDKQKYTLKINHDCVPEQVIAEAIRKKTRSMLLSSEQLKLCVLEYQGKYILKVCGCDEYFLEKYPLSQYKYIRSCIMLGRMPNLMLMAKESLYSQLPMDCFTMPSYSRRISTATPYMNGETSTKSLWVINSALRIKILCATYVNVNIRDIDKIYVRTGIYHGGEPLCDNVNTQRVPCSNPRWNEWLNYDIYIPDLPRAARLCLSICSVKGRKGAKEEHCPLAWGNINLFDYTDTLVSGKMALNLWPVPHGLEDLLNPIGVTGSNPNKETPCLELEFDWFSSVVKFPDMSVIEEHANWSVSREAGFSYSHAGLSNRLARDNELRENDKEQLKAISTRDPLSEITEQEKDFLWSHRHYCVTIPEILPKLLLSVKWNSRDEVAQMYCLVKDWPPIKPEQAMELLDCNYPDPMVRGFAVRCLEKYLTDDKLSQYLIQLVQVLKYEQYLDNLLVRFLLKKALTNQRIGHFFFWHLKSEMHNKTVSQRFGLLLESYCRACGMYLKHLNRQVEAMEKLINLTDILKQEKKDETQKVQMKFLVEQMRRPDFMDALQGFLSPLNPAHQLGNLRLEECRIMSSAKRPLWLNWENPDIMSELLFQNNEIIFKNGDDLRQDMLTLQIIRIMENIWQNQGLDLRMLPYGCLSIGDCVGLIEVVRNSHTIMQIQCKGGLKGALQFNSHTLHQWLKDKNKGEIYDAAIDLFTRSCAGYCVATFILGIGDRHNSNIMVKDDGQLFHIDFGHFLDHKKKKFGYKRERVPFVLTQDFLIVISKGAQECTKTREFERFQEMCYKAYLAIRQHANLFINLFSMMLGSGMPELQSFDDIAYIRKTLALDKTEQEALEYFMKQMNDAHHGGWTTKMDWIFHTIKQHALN
T1 sequence (P27986 whole entry partner): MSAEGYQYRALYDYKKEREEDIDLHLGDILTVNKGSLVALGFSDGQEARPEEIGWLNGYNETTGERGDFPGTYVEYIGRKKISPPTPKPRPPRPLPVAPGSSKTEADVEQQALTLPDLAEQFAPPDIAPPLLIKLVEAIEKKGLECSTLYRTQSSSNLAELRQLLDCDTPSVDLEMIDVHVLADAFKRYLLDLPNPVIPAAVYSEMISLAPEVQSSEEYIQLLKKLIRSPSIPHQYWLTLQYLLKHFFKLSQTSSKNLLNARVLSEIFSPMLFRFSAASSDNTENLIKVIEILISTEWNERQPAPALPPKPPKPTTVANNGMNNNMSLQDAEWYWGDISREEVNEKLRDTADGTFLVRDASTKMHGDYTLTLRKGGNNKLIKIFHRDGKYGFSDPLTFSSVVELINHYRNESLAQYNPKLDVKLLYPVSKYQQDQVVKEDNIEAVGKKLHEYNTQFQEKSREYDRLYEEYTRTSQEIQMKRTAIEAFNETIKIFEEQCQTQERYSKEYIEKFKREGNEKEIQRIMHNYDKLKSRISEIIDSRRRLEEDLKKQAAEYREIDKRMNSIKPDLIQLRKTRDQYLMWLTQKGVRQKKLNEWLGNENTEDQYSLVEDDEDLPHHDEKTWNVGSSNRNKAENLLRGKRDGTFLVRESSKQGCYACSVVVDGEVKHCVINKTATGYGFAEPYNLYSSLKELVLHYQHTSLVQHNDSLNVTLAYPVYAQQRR
T2 sequence (P42338 whole entry): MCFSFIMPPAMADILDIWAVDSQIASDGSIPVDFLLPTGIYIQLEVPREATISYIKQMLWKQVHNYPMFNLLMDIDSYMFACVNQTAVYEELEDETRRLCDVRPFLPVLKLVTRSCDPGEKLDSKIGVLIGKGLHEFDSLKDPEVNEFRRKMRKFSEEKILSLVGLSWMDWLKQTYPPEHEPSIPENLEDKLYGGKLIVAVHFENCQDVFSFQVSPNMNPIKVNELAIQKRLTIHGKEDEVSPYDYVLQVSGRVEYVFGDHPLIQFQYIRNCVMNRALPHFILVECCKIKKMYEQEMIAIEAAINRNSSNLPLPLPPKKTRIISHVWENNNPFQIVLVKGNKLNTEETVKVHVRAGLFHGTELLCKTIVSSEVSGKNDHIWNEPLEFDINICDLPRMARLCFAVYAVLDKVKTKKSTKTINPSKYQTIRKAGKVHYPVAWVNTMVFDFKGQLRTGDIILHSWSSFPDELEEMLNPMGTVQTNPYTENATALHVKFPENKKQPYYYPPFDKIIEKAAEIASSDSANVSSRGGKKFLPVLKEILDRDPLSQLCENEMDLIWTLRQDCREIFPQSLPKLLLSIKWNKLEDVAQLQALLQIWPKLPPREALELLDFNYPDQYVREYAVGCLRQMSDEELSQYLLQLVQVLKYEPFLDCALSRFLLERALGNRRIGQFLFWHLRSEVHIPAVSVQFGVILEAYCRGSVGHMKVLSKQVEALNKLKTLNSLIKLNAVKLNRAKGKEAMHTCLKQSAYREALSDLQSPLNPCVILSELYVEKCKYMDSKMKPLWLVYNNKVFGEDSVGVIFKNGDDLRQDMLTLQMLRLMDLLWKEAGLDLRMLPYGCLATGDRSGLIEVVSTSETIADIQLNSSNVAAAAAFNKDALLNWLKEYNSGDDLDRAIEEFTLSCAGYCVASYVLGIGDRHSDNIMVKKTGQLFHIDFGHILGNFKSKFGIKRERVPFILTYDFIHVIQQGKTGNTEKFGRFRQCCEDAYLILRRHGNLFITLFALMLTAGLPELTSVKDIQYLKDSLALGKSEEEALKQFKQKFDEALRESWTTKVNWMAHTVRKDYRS
T2 sequence (P27986 whole entry partner): as the sequence (P27986 whole entry partner) above
T3 sequence (O00329 whole entry): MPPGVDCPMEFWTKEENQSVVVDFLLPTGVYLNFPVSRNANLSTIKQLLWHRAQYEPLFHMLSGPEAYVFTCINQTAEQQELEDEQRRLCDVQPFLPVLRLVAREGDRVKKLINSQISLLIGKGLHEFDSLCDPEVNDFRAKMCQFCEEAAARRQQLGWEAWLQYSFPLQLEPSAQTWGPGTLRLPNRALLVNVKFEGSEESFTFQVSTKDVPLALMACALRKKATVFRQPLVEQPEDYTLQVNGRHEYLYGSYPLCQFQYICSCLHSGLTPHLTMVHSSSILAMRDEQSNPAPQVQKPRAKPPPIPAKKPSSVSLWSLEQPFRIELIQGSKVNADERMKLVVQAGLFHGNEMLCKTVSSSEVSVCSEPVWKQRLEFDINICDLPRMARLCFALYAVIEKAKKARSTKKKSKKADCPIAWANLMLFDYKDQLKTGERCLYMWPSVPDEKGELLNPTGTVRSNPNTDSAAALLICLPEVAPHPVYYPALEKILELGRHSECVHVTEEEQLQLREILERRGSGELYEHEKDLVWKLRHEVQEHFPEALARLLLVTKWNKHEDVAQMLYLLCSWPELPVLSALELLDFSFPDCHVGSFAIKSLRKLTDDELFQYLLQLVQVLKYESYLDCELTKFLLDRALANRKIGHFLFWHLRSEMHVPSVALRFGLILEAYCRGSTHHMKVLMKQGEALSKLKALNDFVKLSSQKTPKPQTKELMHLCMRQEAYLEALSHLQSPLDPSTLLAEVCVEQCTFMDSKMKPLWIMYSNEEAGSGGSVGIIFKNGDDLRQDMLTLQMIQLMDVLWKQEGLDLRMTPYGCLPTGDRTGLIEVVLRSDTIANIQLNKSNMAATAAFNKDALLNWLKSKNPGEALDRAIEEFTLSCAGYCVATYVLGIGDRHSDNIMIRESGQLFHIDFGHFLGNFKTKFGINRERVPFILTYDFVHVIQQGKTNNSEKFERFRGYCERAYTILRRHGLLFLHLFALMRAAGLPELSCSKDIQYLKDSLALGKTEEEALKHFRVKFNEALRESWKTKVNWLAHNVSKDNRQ
T3 sequence (P27986 whole entry partner): as the sequence (P27986 whole entry partner) above

With `C[C@H]1COCCN1c1nc(-c2cnc(N)cc2Cl)cc(C2(S(C)(=O)=O)CCC2)n1` [Compound S-31], the IC50 in experiment [1] (setting [5]) is 12 nM; in experiment [2], 171 nM; in experiment [3] it was 103 nM; in experiment [4] (setting [6]), 126 nM; in the experiment with T47D cells, 73 nM.
On the same counts, the results for `CC(C)S(=O)(=O)C1(c2cc(-c3cnc(N)cc3C(F)(F)F)nc(N3CCOC[C@@H]3C)n2)CCC1` [Compound S-13, (S)-5-(6-(1-(isopropylsulfonyl)cyclobutyl)-2-(3-methylmorpholino)pyrimidin-4-yl)-4-(trifluoromethyl)pyridin-2-amine] are 67 nM, 1670 nM, 226 nM, 463 nM and 244 nM.
Take `CS(=O)(=O)C1(c2cc(-c3cnc(N)cc3F)nc(N3CCOCC3)n2)CC1` [Compound S-82]: the IC50 in experiment [1] (setting [5]) was determined as 39 nM; in experiment [2] it was 86 nM; in experiment [3], 132 nM; in experiment [4] (setting [6]), 369 nM; with T47D cells it was 62 nM.
As for `CC(C)(c1cc(-c2cnc(N)nc2C(F)(F)F)nc(N2CCOCC2)n1)S(C)(=O)=O` [Compound S-45], the IC50 in experiment [1] (setting [5]) is 35 nM; in experiment [2], 28 nM; in experiment [3], 17 nM; in experiment [4] (setting [6]), 156 nM; in the experiment with T47D cells, 163 nM.
In the case of `CCS(=O)(=O)C1(c2cc(-c3cnc(N)cc3C(F)(F)F)nc(N3CCOCC3)n2)CCC1` [Compound S-49, 5-(6-(1-(ethylsulfonyl)cyclobutyl)-2-morpholinopyrimidin-4-yl)-4-(trifluoromethyl)pyridin-2-amine], the IC50 came to 17 nM in experiment [1] (setting [5]); 327 nM in experiment [2]; 85 nM in experiment [3]; 382 nM in experiment [4] (setting [6]); 208 nM in the experiment on T47D cells.
With `CS(=O)(=O)C1(c2cc(-c3cnc(N)cc3C(F)(F)F)nc(N3CCOCC3)n2)CCCC1` [Compound S-10], the IC50 in experiment [1] (setting [5]) worked out at 42 nM; in experiment [2] it was 1140 nM; in experiment [3], 367 nM; in experiment [4] (setting [6]), 384 nM; in the experiment on T47D cells, 218 nM.
In the case of `CS(=O)(=O)C(F)(F)c1cc(-c2cnc(N)cc2Cl)nc(N2CCOCC2)n1` [Compound S-54, 4-chloro-5-(6-(difluoro(methylsulfonyl)methyl)-2-morpholinopyrimidin-4-yl)pyridin-2-amine], the IC50 turned out to be 12 nM in experiment [1] (setting [5]); 92 nM in experiment [2]; 145 nM in experiment [3]; 488 nM in experiment [4] (setting [6]); 255 nM with T47D cells.
In the case of `CS(=O)(=O)C1(c2cc(N3CCOCC3)nc(-c3cnc(N)cc3C(F)(F)F)n2)CC1` [reference compound], the IC50 came out at 90 nM in experiment [1] (setting [5]); 2160 nM in experiment [2]; 2580 nM in experiment [3]; 1020 nM in experiment [4] (setting [6]); 854 nM in the experiment on T47D cells.
`C[C@@H]1COCCN1c1nc(-c2cnc(N)cc2Cl)cc(C(C)(C)S(C)(=O)=O)n1` [Compound S-67]: the IC50 in experiment [1] (setting [5]) turned out to be 6 nM; in experiment [1] (setting [7]), 6 nM; in experiment [2], 208 nM; in experiment [3] it was 59 nM; in experiment [4] (setting [6]), 187 nM; in the experiment with T47D cells, 88 nM.
Consider `CC(C)(c1cc(-c2cnc(N)cc2Cl)nc(N2CCOCC2)n1)S(C)(=O)=O` [Compound S-38, 4-chloro-5-(6-(2-(methylsulfonyl)prop-2-yl)-2-morpholinopyrimidin-4-yl)pyridin-2-amine], for which the IC50 was found to be 17 nM in experiment [1] (setting [5]); 113 nM in experiment [2]; 212 nM in experiment [3]; 332 nM in experiment [4] (setting [6]); 244 nM in the experiment with T47D cells.
In the case of `CCS(=O)(=O)C1(c2cc(-c3cnc(N)cc3C(F)(F)F)nc(N3CCOC[C@@H]3C)n2)CCC1` [Compound S-23], the IC50 in experiment [1] (setting [5]) worked out at 16 nM; in experiment [2], 620 nM; in experiment [3], 62 nM; in experiment [4] (setting [6]), 366 nM; with T47D cells, 20 nM.
Consider `Nc1cc(Cl)c(-c2cc(C3(S(=O)(=O)c4ccccc4F)CC3)nc(N3CCOCC3)n2)cn1` [Compound S-66], for which the IC50 was found to be 9 nM in experiment [1] (setting [5]); 9 nM in experiment [1] (setting [7]); 73 nM in experiment [2]; 46 nM in experiment [3]; 253 nM in experiment [4] (setting [6]); 147 nM with T47D cells.
`C[C@H]1COCCN1c1nc(-c2cnc(N)cc2F)cc(C(C)(C)S(C)(=O)=O)n1` [Compound S-84]: the IC50 turned out to be 21 nM in experiment [1] (setting [5]); 812 nM in experiment [2]; 18 nM in experiment [3]; 121 nM in experiment [4] (setting [6]); 33 nM in the experiment on T47D cells.
Turning to `COC(C)(C)c1cc(-c2cnc(N)cc2Cl)nc(N2CCOC[C@@H]2C)n1` [Compound S-75], the IC50 in experiment [1] (setting [5]) is 23 nM; in experiment [1] (setting [7]), 23 nM; in experiment [2], 943 nM; in experiment [3] it was 810 nM; in experiment [4] (setting [6]), 385 nM; with T47D cells, 249 nM.
Regarding `Nc1cc(C(F)(F)F)c(-c2cc(C3(S(=O)(=O)c4ccccc4F)CC3)nc(N3CCOCC3)n2)cn1` [Compound S-58], the IC50 came to 4 nM in experiment [1] (setting [5]); 72 nM in experiment [2]; 33 nM in experiment [3]; 367 nM in experiment [4] (setting [6]); 129 nM in the experiment on T47D cells.
In the case of `CC(C)S(=O)(=O)C1(c2cc(-c3cnc(N)cc3C(F)(F)F)nc(N3CCOCC3)n2)CCC1` [Compound S-19], the IC50 was determined as 80 nM in experiment [1] (setting [5]); 512 nM in experiment [2]; 493 nM in experiment [3]; 575 nM in experiment [4] (setting [6]); 178 nM in the experiment on T47D cells.
`CS(=O)(=O)C1(c2cc(-c3cnc(N)nc3C(F)(F)F)nc(N3CCOCC3)n2)CC1` [Compound S-46]: the IC50 was 6 nM in experiment [1] (setting [5]); 8 nM in experiment [2]; 13 nM in experiment [3]; 131 nM in experiment [4] (setting [6]); 137 nM in the experiment on T47D cells. The “increase of inhibitory activity against PI3K-α kinase compared with BKM-120” value in experiment [1] (relative to BKM-120) is reported as “about 10 times”.
On to `Nc1cc(C(F)(F)F)c(-c2cc(C3(S(=O)(=O)c4ccccc4)CCC3)nc(N3CCOCC3)n2)cn1` [Compound S-20], for which the IC50 in experiment [1] (setting [5]) was 24 nM; in experiment [2], 676 nM; in experiment [3] it was 42 nM; with T47D cells, 332 nM.
Take `CC(C)S(=O)(=O)C1(c2cc(-c3cnc(N)cc3F)nc(N3CCOCC3)n2)CC1` [Compound S-86]: the IC50 is 26 nM in experiment [1] (setting [5]); 26 nM in experiment [1] (setting [7]); 763 nM in experiment [2]; 397 nM in experiment [3]; 240 nM in experiment [4] (setting [6]); 69 nM in the experiment with T47D cells.
Turning to `CC(C)S(=O)(=O)C1(c2cc(-c3cnc(N)cc3C(F)(F)F)nc(N3CCOCC3)n2)CC1` [Compound S-18], the IC50 stood at 548 nM in experiment [2], 246 nM in experiment [3], 430 nM in experiment [4] (setting [6]) and 160 nM with T47D cells.
`C[C@H]1COCCN1c1nc(-c2cnc(N)cc2F)cc(C2(S(C)(=O)=O)CC2)n1` [Compound S-83]: the IC50 in experiment [1] (setting [5]) was 20 nM; in experiment [4] (setting [6]), 196 nM; in the experiment with T47D cells, 30 nM.
`COC(C)(C)c1cc(-c2cnc(N)cc2C(F)(F)F)nc(N2CCOCC2)n1` [Compound S-71, 5-(6-(2-methoxypropan-2-yl)-2-morpholinopyrimidin-4-yl)-4-(trifluoromethyl) pyridin-2-amine]: the IC50 was 9 nM in experiment [1] (setting [5]); 177 nM in experiment [2]; 555 nM in experiment [4] (PC-3, 2 h); 165 nM in the experiment on T47D cells.
